Measurements taken from patent US20260294885A1, “TREATMENT OF INFLAMMATORY CONDITIONS COMPRISING IMU-856” (IMMUNIC AG, priority 2023, published 2026).
Entries after “also recorded” stand apart in the source; their conditions may differ.

Tests used:
[1] = tested on: dextran sodium sulphate (DSS)-induced colitis; experiment: DSS-induced colitis model in mice (different settings); type: in vivo; conditions: different settings of DSS colitis model
healthy subjects = experiment: Phase I safety in healthy subjects (Parts A and B); type: in vivo, human
Protocol: (§1) In Part A, healthy subjects were randomised to single ascending doses of IMU-856 (10 mg to 160 mg) or placebo. In Part B healthy subjects were randomised to multiple once-daily doses of IMU-856 (40, 80, and 160 mg) or placebo for 14 days. Part C randomised patients with celiac disease who were on a gluten-free diet to multiple once-daily doses of IMU-856 (80 mg and 160 mg) or placebo for 28 days; a once-daily gluten challenge (6 g) was introduced on Day 14 and ended on Day 28. 71 healthy subjects were enrolled in Part A and B (N=19 placebo and N=52 IMU-856) and 43 patients with CelD in Part C (N=14 placebo; N=14 for 80 mg, and N=15 for 160 mg). In Parts A and B, treatment-emergent adverse events (TEAEs) occurred in 24 (73%) and 15 (79%) of subjects receiving any dose of IMU-856 compared to 6 (50%) and 5 (71%) with placebo, respectively. […] In Part C, the most common adverse events with any dose of IMU-856 by preferred term were headache (13 [45%]), nausea (9 [31%]), diarrhoea (8 [28%]), and abdominal distension (7 [24%]). […] In Part C, the mean change in villous height from baseline to Day 29 with 80 mg and 160 mg was −20.9±34.8 μm, and −22.5±51.1 μm, respectively, and −60.3±52.2 μm with placebo. […] Mean change in plasma citrulline increased with 80 mg and 160 mg from baseline to Day 14 (2.4±6.2 and 6.1±5.9 μmol/L, respectively) and from baseline to Day 29 (2.8±7.6 and 2.2±5.3 μmol/L, respectively), but not with placebo (−2.7±5.6 and −4.0±6.5 μmol/L). […] Mean increase in zinc levels from baseline to Day 29 with 80 mg and 160 mg were 0.3±1.4 and 0.9±2.1 μmol/L compared to a mean decrease in placebo (−0.9±2.1 μmol/L). Gluten-induced symptoms were also attenuated by IMU-856.

[2] = tested on: other histone deacetylases (HDACs); experiment: Enzymatic activity of other histone deacetylases; type: biochemical
[3] = tested on: other members of the human SIRT protein family; experiment: Selectivity over other members of the SIRT family; type: biochemical
[4] = tested on: sirtuin 6 protein (SIRT6); experiment: SIRT6 protein stabilization
[5] = tested on: patients with celiac disease; experiment: Duodenal biopsy histology with gluten challenge (villous height, Vh:Cd, Q-MARSH), Part C; type: in vivo, human; conditions: for reduction in villous height: two weeks of 6 g/day gluten challenge; for mean change in villous height: baseline to Day 29, gluten challenge 6 g/day
Protocol: as §1
(§2) FIG. 1 illustrates the flow chart of part C in celiac disease (CelD) designed as proof-of-concept study with a gluten challenge trial. Part C was planned to include a well-controlled celiac disease patient population: The patients were 100% seronegative, indicating absence of ongoing substantial gluten exposure and was performed at sites in Australia and New Zealand. Part C was designed to assess safety, tolerability and pharmacokinetics of IMU-856 and measured also histologic changes, blood biomarkers, nutrient uptake and disease-related symptoms.

SIRT6 = SIRT6 (Homo sapiens, UniProt Q8N6T7); experiment: Inhibition of SIRT6 deacetylation of acetylated H3K56, in vitro cell free; type: biochemical
[6] = tested on: patients with celiac disease; experiment: Nutrient absorption (vitamin B12, zinc, ferritin), Part C; type: in vivo, human; conditions: for increase in vitamin B12 levels: over the course of the trial; for mean increase in vitamin B12 levels / mean increase in zinc levels: baseline to Day 29
Protocol: as §1, with “IMU-856. […]” for “IMU-856.”

[7] = tested on: patients with celiac disease; experiment: Phase Ib safety in patients with celiac disease (Part C); type: in vivo, human
Protocol: as §1, §2

[8] = Part A, any single dose (10 mg to 160 mg)
[9] = Part B, any dose (40, 80, 160 mg once daily, 14 days)

Sequence of SIRT6 (Q8N6T7 whole entry): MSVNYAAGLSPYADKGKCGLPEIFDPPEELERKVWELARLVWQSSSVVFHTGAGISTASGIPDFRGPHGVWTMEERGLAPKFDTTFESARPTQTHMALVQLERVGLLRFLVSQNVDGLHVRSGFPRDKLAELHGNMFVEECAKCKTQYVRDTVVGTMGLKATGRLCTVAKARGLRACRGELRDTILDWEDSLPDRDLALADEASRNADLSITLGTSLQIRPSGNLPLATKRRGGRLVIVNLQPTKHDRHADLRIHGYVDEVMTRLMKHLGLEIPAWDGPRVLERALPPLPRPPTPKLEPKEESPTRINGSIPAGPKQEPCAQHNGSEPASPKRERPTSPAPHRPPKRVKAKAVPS

Cn1c(COc2cc(C(F)(F)F)ccn2)nnc1[C@H]1CC[C@H](c2cnn([C@H]3CC[C@H](N4CC5(CCO5)C4)CC3)c2)CC1 [IMU-856, 6-(trans-4-(4-(trans-4-(4-methyl-5-(((4-(trifluoromethyl)pyridin-2-yl)oxy)methyl)-4H-1,2,4-triazol-3-yl)cyclohexyl)-1H-pyrazol-1-yl)cyclohexyl)-1-oxa-6-azaspiro[3.3]heptane]
colon length [1]: increasing colon length | colon mucosal histology [1]: improving colon mucosal histology | diarrhea symptoms [1]: improving diarrhea symptoms | disease severity [1]: reducing disease severity | subjects with TEAEs (number) (healthy subjects; [8]): 24 | subjects with TEAEs (percentage) (healthy subjects; [8]): 73% | serious adverse events (healthy subjects; Part B): 1 | subjects with TEAEs (number) (healthy subjects; [9]): 15 | subjects with TEAEs (percentage) (healthy subjects; [9]): 79% | severity of TEAEs (healthy subjects; Parts A and B): mild in severity | inhibition of enzymatic activity of other HDACs [2]: does not inhibit | selectivity for SIRT6 over other SIRT family members [3]: highly selective for SIRT6 | stabilization of sirtuin 6 protein [4]: stabilizer | reduction in villous height ([5]; 80 mg (N=11)): 20.9 μm | mean change in villous height ([5]; 80 mg once daily): −20.9±34.8 μm | reduction in villous height ([5]; 160 mg (N=13)): 22.5 μm | mean change in villous height ([5]; 160 mg once daily): −22.5±51.1 μm | villous height protection versus placebo ([5]; Baseline to Day 29): protects villous height as compared to placebo, reaching statistical significance | patients with improvement in one Q-MARSH category ([5]; Day 29, after gluten challenge): two and Two | Q-MARSH histological damage ([5]; change in Q-MARSH score between Baseline and Day 29): signals of preventing histological damage | inhibition of deacetylase activity of SIRT6 (SIRT6): selective inhibitor of the deacetylase activity | deacetylation of H3K56 (SIRT6; in vitro cell free system): prevents the deacetylation | increase in vitamin B12 levels ([6]; 80 mg (N=11)): 45.8 pmol/L | mean increase in vitamin B12 levels ([6]; 80 mg): 45.8 ± 94.4 pmol/L | mean increase in zinc levels ([6]; 80 mg): 0.3 ± 1.4 µmol/L | increase in vitamin B12 levels ([6]; 160 mg (N=13)): 74.2 pmol/L | mean increase in vitamin B12 levels ([6]; 160 mg): 74.2 ± 99.9 pmol/L | mean increase in zinc levels ([6]; 160 mg): 0.9 ± 2.1 µmol/L | gluten-induced iron malabsorption (ferritin levels) ([6]; Baseline to Day 29): ameliorates the gluten-induced iron malabsorption; also recorded: decreased to a lesser extent | nutrient absorption (vitamin B12) ([6]; in words): enhances nutrient absorption in a dose-dependent manner | nutrient absorption (zinc) ([6]; in words): enhances nutrient absorption in a dose-dependent manner; also recorded: A similar responses to treatment was observed for zinc | serious adverse events [7]: 1 | abdominal distension (number) ([7]; any dose): 7 | abdominal distension (percentage) ([7]; any dose): 24% | diarrhoea (number) ([7]; any dose): 8 | diarrhoea (percentage) ([7]; any dose): 28% | headache (number) ([7]; any dose): 13 | headache (percentage) ([7]; any dose): 45% | nausea (number) ([7]; any dose): 9 | nausea (percentage) ([7]; any dose): 31%
